Results from patent publication US9034898B2, “FGF receptor (FGFR) agonist dimeric compounds, process for the preparation thereof and therapeutic use thereof” (Sanofi, priority 2011, dated 2015).

What was measured:
[1] = system: human venous endothelial cells (HUVECs); assay: In vitro angiogenesis model (pseudotubule length of HUVECs on matrigel/collagen); format: cell-based; set-up: % activation with respect to FGF2 (in vitro): concentration or dose not given beside the values; conditions: for activity on the in vitro angiogenesis model: at a concentration of 1 nM, HUVECs, 24 hours; for EC50 / % activation with respect to FGF2 (in vitro): in vitro; for % activation with respect to FGF2 (in vitro): relative to FGF2
Protocol: In Vitro Angiogenesis Model
The products are tested for their ability to cause rearrangement of human venous endothelial cells (HUVECs) on matrigel (Becton dickinson 356230) diluted in collagen (rat tail collagen, type I: Becton dickinson 354236). After 24 hours, the cells are observed under a microscope with a X4 objective and the length of the pseudotubules is measured by means of an image analyser (BIOCOM-logiciel Visiolab 2000).
By way of example, compounds 1, 2, 3, 5 and 9 are active at a concentration of 1 nM on the in vitro angiogenesis model.

BalbC mice = assay: Sponge angiogenesis model (haemoglobin content of implanted cellulose sponge); format: in vivo; conditions: concentration of 300 μM injected into the sponge, eighth day after implantation
Description: Sponge Angiogenesis Model
The sponge angiogenesis model is an adaptation of the technique of Andrade et al [Andrade S P, Machado R., Teixeir A S, Belo A V, Tarso A M, Beraldo W T—Sponge-induced angiogenesis in mice and the pharmacological reactivity of the neovasculature quantitated by fluorimetric method, Microvascular Research, 1997, 54: 253-61.]
The mice used are BalbC females from Charles River Laboratory, 7 to 10 weeks old. The animals are anaesthetized by intraperitoneal injection of a xylazine/ketamine mixture ([…] in 0.9% NaCl). The animal's back is shaved and disinfected with hexomedine. A subcutaneous 5 ml pocket of air is made on the animal's back with sterile air. An incision is then made (approximately 1 cm) on the top of the animal's back in order to implant the sponge into the pocket. The biocompatible cellulose sponge (Cellspon, Interchim, 10 mm in diameter) was sterilized beforehand (autoclave 20 min at 120° C.) and is impregnated with 50 μl of sterile solution containing the test product. Suturing is performed by inserting two 9-mm stainless steel autoclip staples (Subra). The wound is again disinfected with hexomedine. […]
To assay the haemoglobin, 50 μl of each sample are deposited in a 96-well plate, in duplicate. […] The OD values are read on a spectrophotometer at 405 nm, using the Biolise software (Tecan, France). […]

| Structure (SMILES) | activity on the in vitro angiogenesis model [1] | EC50 [1] [nM] | % activation with respect to FGF2 (in vitro) [1] [%] | EC50 ([1]; Homo sapiens, HUVEC) [nM] | activity on the in vivo angiogenesis model (BalbC mice) |
| --- | --- | --- | --- | --- | --- |
| O=C(O)c1cc(-c2cc(C(=O)NCCCOCCOCCCNC(=O)c3cc(-c4ccc(F)c(C(=O)O)c4)nc4[nH]nc(-c5ccccc5)c34)c3c(-c4ccccc4)n[nH]c3n2)ccc1F [Compound 1, 3,3′-{ethane-1,2-diylbis[oxypropane-3,1-diylcarbamoyl(3-phenyl-1H-pyrazolo[3,4-b]pyridine-4,6-diyl)]}bis(6-fluorobenzoic acid)] | active | < 1 | 84 |  |  |
| O=C(O)c1cc(-c2cc(C(=O)NCCOCCOCCOCCOCCNC(=O)c3cc(-c4ccc(F)c(C(=O)O)c4)nc4[nH]nc(-c5ccccc5)c34)c3c(-c4ccccc4)n[nH]c3n2)ccc1F [Compound 3, 5-[4-({16-[6-(3-carboxy-4-fluorophenyl)-3-phenyl-1H-pyrazolo[3,4-b]pyridin-4-yl]-16-oxo-3,6,9,12-tetraoxa-15-azahexadec-1-yl}carbamoyl)-3-phenyl-1H-pyrazolo[3,4-b]pyridin-6-yl]-2-fluorobenzoic acid] | active |  | 75 | < 1 |  |
| NC(=O)c1cc(-c2ccc(F)c(C(=O)O)c2)nc2[nH]nc(-c3ccc(C(=O)NCCOCCOCCNC(=O)c4ccc(-c5n[nH]c6nc(-c7ccc(F)c(C(=O)O)c7)cc(C(N)=O)c56)cc4)cc3)c12 [Compound 9, 3,3′-{ethane-1,2-diylbis[oxyethane-2,1-diylcarbamoylbenzene-4,1-diyl(4-carbamoyl-1H-pyrazolo[3,4-b]pyridine-3,6-diyl)]}bis(6-fluorobenzoic acid)] | active | < 1 | 60 |  |  |
| NC(=O)c1cc(-c2ccc(F)c(C(=O)O)c2)nc2[nH]nc(-c3cccc(C(=O)NCCCOCCOCCOCCCNC(=O)c4cccc(-c5n[nH]c6nc(-c7ccc(F)c(C(=O)O)c7)cc(C(N)=O)c56)c4)c3)c12 [Compound 6, 5-(4-carbamoyl-3-{3-[(15-{3-[4-carbamoyl-6-(3-carboxy-4-fluorophenyl)-1H-pyrazolo[3,4-b]pyridin-3-yl]phenyl}-15-oxo-4,7,10-trioxa-14-azapentadec-1-yl)carbamoyl]phenyl}-1H-pyrazolo[3,4-b]pyridin-6-yl)-2-fluorobenzoic acid] |  |  | 50 | 3 |  |
| O=C(O)c1cc(-c2cc(C(=O)NCCCOCCOCCOCCCNC(=O)c3cc(-c4ccc(F)c(C(=O)O)c4)nc4[nH]nc(-c5ccccc5)c34)c3c(-c4ccccc4)n[nH]c3n2)ccc1F [Compound 2, 5-[4-({15-[6-(3-carboxy-4-fluorophenyl)-3-phenyl-1H-pyrazolo[3,4-b]pyridin-4-yl]-15-oxo-4,7,10-trioxa-14-azapentadec-1-yl}carbamoyl)-3-phenyl-1H-pyrazolo[3,4-b]pyridin-6-yl]-2-fluorobenzoic acid] | active |  | 84 | < 1 | active |
| O=C(O)c1cc(-c2cc(C(=O)NCCCOCCOCCOCCOCCOCCCNC(=O)c3cc(-c4ccc(F)c(C(=O)O)c4)nc4[nH]nc(-c5ccccc5)c34)c3c(-c4ccccc4)n[nH]c3n2)ccc1F [Compound 5, 5-[4-({21-[6-(3-carboxy-4-fluorophenyl)-3-phenyl-1H-pyrazolo[3,4-b]pyridin-4-yl]-21-oxo-4,7,10,13,16-pentaoxa-20-azahenicos-1-yl}carbamoyl)-3-phenyl-1H-pyrazolo[3,4-b]pyridin-6-yl]-2-fluorobenzoic acid] | active |  | 124 | < 1 |  |
| NC(=O)c1cc(-c2ccc(F)c(C(=O)O)c2)nc2[nH]nc(-c3ccc(C(=O)NCCCOCCOCCOCCCNC(=O)c4ccc(-c5n[nH]c6nc(-c7ccc(F)c(C(=O)O)c7)cc(C(N)=O)c56)cc4)cc3)c12 [Compound 8, 5-(4-carbamoyl-3-{4-[(15-{4-[4-carbamoyl-6-(3-carboxy-4-fluorophenyl)-1H-pyrazolo[3,4-b]pyridin-3-yl]phenyl}-15-oxo-4,7,10-trioxa-14-azapentadec-1-yl)carbamoyl]phenyl}-1H-pyrazolo[3,4-b]pyridin-6-yl)-2-fluorobenzoic acid] |  |  | 20 | < 100 |  |
